Values quoted from earlier work as cited in patent US20240074996A1, “C5 KETONE COMPOSITIONS AND RELATED METHODS FOR TREATING METABOLIC DYSFUNCTION” (Keto Innovations, LLC, priority 2018, published 2024).

Conditions: nondiabetic animals; intravenous; doses corresponding to 75% of the energy requirement (Leclerc et al 1995); cited from earlier work

For CC[C@@H](O)CC(=O)O [(R)-B-hydroxypentanoate], the “Utilisation after intravenous administration” value is given as “very rapidly used”.
